Results: PMC12040169 (PLOS Biology, 2025)

Test: in vitro
Details: human, hela cells, % viability

In order of falling viability at 28.5 h, 10 µM:
1. CC(C)(CNC(=O)c1ccc(=O)n(CC(=O)N2CCc3ccccc32)c1)c1ccccc1F [CBK286020]  127%
2. COc1ccc(C2(C(=O)NCc3ccc(OC(F)(F)F)cc3)CC2)cc1 [CBK149823]  117%
3. O=C(CCN1C(=O)c2cc(Cl)c(Cl)cc2C1=O)Nc1cccc(-c2cnc3ccccc3n2)c1 [CBK268575]  114%
4. Cc1noc(C)c1NC(=O)N(Cc1ccc2ccccc2c1)CC1CCNCC1 [CBK049774]  110%
5. O=C(CSCc1ccc(Cl)cc1Cl)Nc1cccc(O)c1 [CBK131702]  110%
6. CCn1nc(C)c(-c2cncn2CCN(C)C2CCCC2)c1C [CBK281569]  109%
7. COc1cccc(-n2c(C)nnc2C2(OC(C)=O)CCN(CCc3ccccc3)CC2)c1 [CBK016371]  108%
8. COc1ccccc1-c1cn2ccnc2c(NCCc2ccccn2)n1 [CBK037980]  107%
9. Cc1nc(=O)c(-c2ccccc2)c(C)n1-c1ccc(OCC(=O)O)cc1 [CBK286615]  106%
10. Cc1ncc(COP(=O)(O)O)c(/C=N/c2ccc3ccccc3c2)c1O [CBK261460]  106%
11. CC(=O)NCCSc1cc(N2CCCC2)ncn1 [CBK105621]  106%
12. OCc1cccc(-c2nccnc2NCc2ccncc2)c1 [CBK037446]  105%
13. CN(C)c1ccc(CN2CC[C@H](c3nc4cccc(C(N)=O)c4[nH]3)C2)cc1 [CBK289414]  105%
14. COCC(=O)Nc1nc2c(s1)C[C@]1(C)CC[C@@H]3[C@H](OC(=O)[C@H]3C)[C@H]1[C@@H]2C [CBK289430]  105%
15. O=S(=O)(Nc1cc(OC2CCCNC2)c2occc2c1)c1cc(F)ccc1F (stereo not shown) [CBK073996C]  105%
16. Nc1ccc(S(=O)(=O)Nc2nccc(/C=C/c3ccc(Cl)cc3)n2)cc1 [CBK263254]  105%
17. Cc1cccc(Nc2nc(N)nc(CC(=O)CSc3ccc(Cl)cc3)n2)c1 [CBK265204]  104%
18. Cc1cc(CNC(=O)N(C)C2CCN(C)C2)no1 (stereo not shown) [CBK155992]  103%
19. COc1cnc(-c2cccc(C(=O)N(C)C)c2)c(NC(=O)c2ccccc2)n1 [CBK145385]  102%
20. Nc1cccc(-c2nccnc2N2CCCC2CO)c1 (stereo not shown) [CBK036786]  102%
21. CCn1c(=O)n(CC(=O)NCc2ccccc2)c2cccnc21 [CBK283824]  101%
22. O=C(CCC1CCCC1)Nc1nnc[nH]1 [CBK266406]  100%
23. Cc1cc(C)c(NC(=O)CSCC(=O)Nc2ccc3ccccc3c2)c(C)c1 [CBK264856]  100%
24. COc1cccc(NC(=O)CCS(=O)(=O)c2cccs2)c1 [CBK071069]  100%
25. COCCn1nnnc1C(c1cc2c(C)ccc(C)c2[nH]c1=O)N1CCN(C(=O)c2ccco2)CC1 (stereo not shown) [CBK111563]  98.6%
26. NS(=O)(=O)c1ccc(NC(=O)CN2CCC(Cc3ccccc3)CC2)cc1 [CBK266161]  98.6%
27. Cc1ccc(S(=O)(=O)N[C@H]2CO[C@H]3[C@@H]2OC[C@H]3O)cc1 [CBK289477]  98.4%
28. O=C(O)CC(NCc1ccco1)C(=O)Nc1cccc(F)c1 (stereo not shown) [CBK286910]  97%
29. N#CC(CCCN1CCN(c2ccccc2)CC1)(c1ccccc1)c1ccccc1 [CBK002243C]  96.8%
30. CN(c1ccc(C(=O)Nc2ccc(S(=O)(=O)N3CCOCC3)cc2)cc1)S(=O)(=O)c1ccccc1 [CBK264129]  96.7%
31. CO[C@H]1CC[C@H](C(=O)N2C3CCC2CC(O)(c2ccco2)C3)CC1 (stereo partly shown) [CBK284107]  96.7%
32. O=C(NC1CCCCC1)C1CCC1 [CBK011511]  96.5%
33. Cn1cc(CN2CCCN(C(=O)c3cc4ccccc4[nH]3)CC2)cn1 [CBK304920]  96%
34. O=S(=O)(NCc1ccco1)c1ccc2c(c1)Cc1ccccc1-2 [CBK267377]  95.5%
35. Nc1nc(SCCc2ccccc2)nc2sc3c(c12)CCCC3 [CBK263445]  94.9%
36. COc1ccc(NC(=O)C2CCCN2c2nc(O)cc(C(F)(F)F)n2)c(OC)c1 (stereo not shown) [CBK003951]  94.9%
37. Cc1ccccc1OCC(O)CNC(=O)c1ccccc1C(=O)O (stereo not shown) [CBK264824]  94.8%
38. COc1cc2c(c(OC)c1OC)CC(=O)NC21CCN(C(=O)CC(C)CC(=O)O)CC1 (stereo not shown) [CBK047265]  94.8%
39. OCc1ccc(-n2ncc(-c3ccc(C(F)(F)F)cc3)n2)cc1 [CBK112696]  94.6%
40. Cc1ccccc1C(NC(=O)C1CCN(C(=O)c2ccccc2)CC1)c1ccccn1 (stereo not shown) [CBK059720]  94.5%
41. CC(NC(=O)C1CCN(Cc2cccnc2)CC1)c1ccc(F)cc1 (stereo not shown) [CBK148032]  94.4%
42. O=C(CC(NC1CCCC1)C(=O)O)Nc1ccc(F)cc1 (stereo not shown) [CBK266976]  93.9%
43. O=C(O)c1ccc(Cl)c(-c2ccc(/C=N\Nc3ccc([N+](=O)[O-])cn3)o2)c1 [CBK263431]  93.9%
44. COC12CCCC(C(=O)O)(CCC1)C2 [CBK038238]  93.8%
45. N#Cc1sc(-c2ccc(F)cc2)cc1NC(=O)c1cccc([N+](=O)[O-])c1 [CBK066845]  93.3%
46. C=CCOc1nc2c(=O)[nH]c(/N=C/N(C)C)nc2n1C1CC(O)C(CO)O1 (stereo not shown) [CBK201299]  93.3%
47. Cc1nc(C2CCCN(C(=O)c3cccnc3)C2)c2sccn12 (stereo not shown) [CBK285233]  93%
48. O=C(N[C@@H](Cc1ccccc1)C(=O)O)c1cccc2c1-c1ccccc1C2=O [CBK286710]  92.1%
49. CS(=O)(=O)CCC(C(=O)O)N1C(=O)c2ccc(Oc3ccc(Cl)cc3)cc2C1=O (stereo not shown) [CBK266377]  92%
50. O=C(Nc1ccc2nc3n(c(=O)c2c1)CCCC3)C1CCCCC1 [CBK304383]  91.9%
51. O=C(Nc1ccc(F)cc1)c1ccsc1NS(=O)(=O)Cc1ccccc1[N+](=O)[O-] [CBK042313]  91.7%
52. CN(C)C(=O)c1ccc(Cn2nc(C(=O)NCCOc3ccccc3)c3ccccc32)cc1 [CBK047700]  91.7%
53. O=C(NCC1COc2ccccc2O1)NC(=O)C1CCNCC1 (stereo not shown) [CBK051096]  91.6%
54. O=C(NCCn1cccn1)c1ncoc1-c1ccc(F)cc1 [CBK282355]  91.5%
55. O=C(Nc1nnc(-c2ccccc2)o1)c1nc2ccccc2s1 [CBK287595]  91.2%
56. CN(C)CCN(Cc1cc2cc3c(cc2[nH]c1=O)OCO3)C(=S)Nc1ccc(F)cc1 [CBK135186]  91.2%
57. Nc1cc(-c2cccs2)nn(Cc2ccccc2Cl)c1=O [CBK282884]  91%
58. COc1ccc(CN2CCC(N3CCCCCC3)CC2)cc1OC [CBK264721G]  90.8%
59. CNC(=O)c1ccc(-c2cccc(COC)c2)nc1NCC1CC1 [CBK106322]  90.7%
60. Cc1csc(Sc2nccnc2N2CCCC2)n1 [CBK093735]  90.3%
61. CC(Oc1cccc(Cl)c1)C(=O)O/N=C(\N)Cc1cccc2ccccc12 (stereo not shown) [CBK266033]  90.3%
62. COc1ccc2c(c1)CCCN2C(=O)c1sc2ccccc2c1Cl [CBK056960]  90.2%
63. CCN(C(=O)c1cn2c3c(cccc3c1=O)CC2)C1CCOC(C)(C)C1 (stereo not shown) [CBK307332]  90.1%
64. CCN(CC)C(=O)c1ccccc1NS(=O)(=O)c1cc(Br)ccc1OC [CBK045422]  89.6%
65. Nc1ccc(-c2nc(NC(=O)Cc3ccccc3)cnc2-c2ccc(F)c(Cl)c2)cc1 [CBK036690]  89.5%
66. CN(C)CC1COc2ccccc2CN1C(=O)Cc1ccccc1F (stereo not shown) [CBK285080]  89.5%
67. OC(Cn1c(Cc2ccccc2)nc2ccccc21)Cn1c2ccc(Cl)cc2c2cc(Cl)ccc21 (stereo not shown) [CBK262546]  89.4%
68. N#C/C(=C\c1ccc(N2CCOCC2)cc1)c1nc2ncc(Br)cc2[nH]1 [CBK266294]  89.4%
69. Cc1ccc(C(=O)C2=C(O)C(=O)N(Cc3cccnc3)C2c2cccc([N+](=O)[O-])c2)cc1 (stereo not shown) [CBK264593]  89.3%
70. CC(=O)c1ccccc1NC(=O)c1cc2ccc(F)cc2nc1C [CBK297929]  89.2%
71. COc1ccc(CN(CCCN2CCOCC2)C(=O)NCc2ccc(C#N)cc2)cc1OC [CBK159125]  89%
72. COc1ccc(CC(CC(=O)O)C(=O)Nc2ccc(OC)cc2)cc1 (stereo not shown) [CBK286975]  87.9%
73. Oc1c(-c2ccc(Cl)cc2)c2nc3ccccc3nc2c2ccccc12 [CBK261628]  87.7%
74. Cc1cc(C)cc(S(=O)(=O)c2ccc3ccnc(N4CCCNCC4)c3c2)c1 [CBK036413C]  87.1%
75. Cc1nn(C)c2nc(NCc3ccc(C(=O)N4CCCCC4)cc3)sc12 [CBK306826]  86.6%
76. CC(C)C(=O)Nc1ccc2c(c1)C(=O)N(CCC(=O)O)C2=O [CBK286544]  86.1%
77. COC(=O)c1ccc(-c2cc3ccccc3o2)nc1 [CBK149228T]  85.9%
78. Cc1cc2c(o1)c1cnn(CC(=O)N3CCCC(C)C3)c(=O)c1n2C (stereo not shown) [CBK284218]  85%
79. CCCC(=O)NCCn1ncc(-c2ccncc2)c1C1CC1 [CBK282116]  83.6%
80. O=C(O)CCCCCNc1ccc(C(F)(F)F)cc1[N+](=O)[O-] [CBK286707]  83.3%
81. COc1ccccc1Nc1nc(C)cc(C)c1C(N)=O [CBK287960]  82.7%
82. COCCn1c(SCCC(=O)O)nc2c1c(=O)[nH]c(=O)n2C [CBK139751]  82%
83. CN(C)c1ccccc1-c1cc(N2CCN(S(=O)(=O)c3ccc(Cl)cc3)CC2)ncn1 [CBK037039]  81.7%
84. C/C(=N\NC(=O)c1cccc(Cl)c1)c1ccccc1O [CBK261665]  81.4%
85. Cc1ccc2nc(NCc3ccco3)c(/C=N/Cc3ccco3)c(=O)n2c1 [CBK220353]  80.4%
86. CCNC(=O)C1CCCN(Cc2ncc(C)c(OC)c2C)C1 (stereo not shown) [CBK305081]  78%
87. COc1ccc(-c2nc(-c3cc4ccccc4o3)cnc2N)cc1OC [CBK064099]  63.2%

Same assay, conditions: human, hela cells, % viability, bulk resorufin, single well

Work on `CCCN(CCc1cccnc1)C1Cc2cc(OC)c(OC)cc2C1` [CBK023935C] yielded a viability at 28.5 h, 10 µM of 88.1%.
